Measurements: patent EP3290412A1, “HIV-1 NUCLEOCAPSID INHIBITORS” (Università degli Studi di Siena, priority 2016, dated 2018)

How the values were obtained:
NC(11-55) = NC(11-55) (Human immunodeficiency virus type 1, UniProt P12493); assay: NC inhibition assay (NC-induced cTAR DNA destabilization, fluorescence); assay type: biochemical, HIV-1; settings: single point screening; positive = >25% inhibition at 100µM
How it was run: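 Doubly labelled cTAR (0.1 µM, Alexa488/Dabcyl) pre-complexed with 1 µM Zn-loaded NC(11-55) for 15 min, then compound added for a further 15 min; run at 20 °C in Tris-HCl pH 7.5, 30 mM NaCl, 0.2 mM MgCl2. Fluorescence read at ex 480/em 520 nm. IC50 taken from dose-response fit of % inhibition of NC-induced fluorescence increase.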

HeLa cells = assay: HeLa Proliferation assay (CellTiter Glo); assay type: cell-based; settings: 72 hours
How it was run: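 HeLa cells in phenol red-free DMEM + 10% FBS plated at 2000 cells/well, recovered 4 h, then exposed to compounds for 72 h at 37 °C, 5% CO2. Viability read by CellTiter Glo luminescence.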

[1] = test system: HIV-1 reference strain NL4-3; assay: MonoCycle assay (TZM-bl cells); assay type: cell-based
How it was run: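 TZM-bl cells (20,000/well) were infected with NL4-3 in the presence of five-fold serial inhibitor dilutions. After 48 h, cells were lysed and luciferase luminescence (RLU) was counted. IC50 was derived from the RLU data.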

[2] = test system: HIV-1 reference strain NL4-3; assay: BiCycle assay (MT-2 then TZM-bl cells); assay type: cell-based
How it was run: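 MT-2 cells were infected with NL4-3 in the presence of five-fold compound dilutions. After 72 h, the supernatant was passed to TZM-bl cells. Two days later, luciferase luminescence was read and IC50 calculated, giving a readout that spans the whole replication cycle.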

[3] = Human immunodeficiency virus 1, NL43, TZM-bl, 48 h, read-out: Mono Cycle IC50 nM
[4] = Human immunodeficiency virus 1, NL43, TZM-bl, read-out: BiCycle IC50 nM
[5] = Human immunodeficiency virus 1, NL43, TZM-bl cells, NL4-3, 48 hours, read-out: Mono Cycle IC50
[6] = Human immunodeficiency virus 1, NL43, MT-2 cells 72 hours then TZM-bl cells two days, NL4-3, read-out: BiCycle IC50

SMILES	inhibition at 100 µM (NC(11-55))	Proliferation assay HELA TD50 (HeLa cells)	IC50 [1, 3]	IC50 [2, 4]	IC50 [1, 5]	IC50 [2, 6]
C[C@H](NC(=O)c1nc(-c2ccc(C(=O)OCc3ccccc3)cn2)nc(O)c1O)C1CCCCC1 [Compound 70, benzyl (S)-6-(4-((1-cyclohexylethyl)carbamoyl)-5,6-dihydroxypyrimidin-2-yl)nicotinate]	> 25%	4.1006 µM	> 50000 nM	190 nM	–	–
Cc1cc(-c2nc(O)c(O)c(C(=O)N[C@H](C)C3CCCCC3)n2)nc2ccccc12 [Compound 73, (R)-N-(1-cyclohexylethyl)-5,6-dihydroxy-2-(4-methylquinolin-2-yl)pyrimidine-4-carboxamide]	> 25%	5.3719 µM	–	–	> 50000 nM	358 nM
Cc1ccnc(-c2nc(O)c(O)c(C(=O)NC3(C4CCCCC4)CC3)n2)c1 [Compound 84, N-(1-cyclohexylcyclopropyl)-5,6-dihydroxy-2-(4-methylpyridin-2-yl)pyrimidine-4-carboxamide]	> 25%	1.9245 µM	–	–	21200 nM	1880 nM
C[C@H](NC(=O)c1nc(-c2cc3ccccc3cn2)nc(O)c1O)C1CCCCC1 [Compound 72, (S)-N-(1-cyclohexylethyl)-5,6-dihydroxy-2-(isoquinolin-3-yl)pyrimidine-4-carboxamide]	> 25%	3.4875 µM	13400 nM	382 nM	–	–
C[C@H](NC(=O)c1nc(-c2ccc3ccccc3n2)nc(O)c1O)C1CCCCC1 [Compound 75, (S)-N-(1-cyclohexylethyl)-5,6-dihydroxy-2-(quinolin-2-yl)pyrimidine-4-carboxamide]	> 25%	7.5355 µM	> 50000 nM	752 nM	–	–
CC(NC(=O)c1nc(-c2nccc3ccccc23)nc(O)c1O)C1CCC(F)(F)CC1 (centres unmarked) [Compound 90, N-(1-(4,4-difluorocyclohexyl)ethyl)-5,6-dihydroxy-2-(isoquinolin-1-yl)pyrimidine-4-carboxamide]	> 25%	6.4522 µM	–	–	> 50000 nM	1790 nM
C[C@H](NC(=O)c1nc(-c2cc(C(=O)OCc3ccccc3)ccn2)nc(O)c1O)C1CCCCC1 [Compound 71, benzyl (S)-2-(4-((1-cyclohexylethyl)carbamoyl)-5,6-dihydroxypyrimidin-2-yl)isonicotinate]	> 25%	12.825 µM	> 50000 nM	559 nM	–	–
C[C@@H](NC(=O)c1nc(-c2cc(C(=O)NCc3ccccc3)ccn2)nc(O)c1O)C1CCCCC1 [Compound 74, (R)-2-(4-(benzylcarbamoyl)pyridin-2-yl)-N-(1-cyclohexylethyl)-5,6-dihydroxypyrimidine-4-carboxamide]	> 25%	3.6728 µM	–	–	> 50000 nM	299 nM
